Experimental data from ChEMBL document CHEMBL1136541, “D-Phe-Pro-Arg type thrombin inhibitors: unexpected selectivity by modification of the P1 moiety” (Bioorg Med Chem Lett, 2003).

Target: T1, Serine protease 1 (Bos taurus, UniProt P00760)
T1 sequence (P00760 whole entry): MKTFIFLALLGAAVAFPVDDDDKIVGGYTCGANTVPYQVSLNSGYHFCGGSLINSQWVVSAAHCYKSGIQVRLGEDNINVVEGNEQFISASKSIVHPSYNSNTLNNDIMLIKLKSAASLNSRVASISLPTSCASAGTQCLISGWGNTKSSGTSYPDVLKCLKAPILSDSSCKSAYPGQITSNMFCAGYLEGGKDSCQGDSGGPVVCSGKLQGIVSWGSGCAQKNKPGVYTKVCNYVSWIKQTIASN
Assay: In vitro inhibitory activity against trypsin

Compound | IC50 [nM]
Cn1c(CNC(=O)[C@@H]2C=CCN2C(=O)[C@@H](CC2CCCCC2)NCC(=O)O)ccc1C(=N)N | 16
Cn1cc(CNC(=O)[C@@H]2C=CCN2C(=O)[C@@H](CC2CCCCC2)NCC(=O)O)cc1C(=N)N | 306
